Values quoted from earlier work in US20230084129A1, “PHARMACEUTICAL COMPOSITION COMPRISING ESOMEPRAZOLE AND SODIUM BICARBONATE HAVING EXCELLENT RELEASE PROPERTIES” (Chong Kun Dang Pharmaceutical Corp., priority 2020, published 2023).

Conditions: aqueous solution having a pH of 3 or less

degradation half-life: less than 10 minutes
SMILES: COc1ccc2nc([S@@+]([O-])Cc3ncc(C)c(OC)c3C)[nH]c2c1 [esomeprazole, (S)-5-methoxy-2-[(4-methoxy-3,5-dimethyl-2-pyridinyl)-methyl]sulfinyl-1H-benzimidazole]
